For assay [1], the target named is T1, Sphingosine kinase 2 (Homo sapiens, UniProt Q9NRA0).
T1 sequence (Q9NRA0 whole entry): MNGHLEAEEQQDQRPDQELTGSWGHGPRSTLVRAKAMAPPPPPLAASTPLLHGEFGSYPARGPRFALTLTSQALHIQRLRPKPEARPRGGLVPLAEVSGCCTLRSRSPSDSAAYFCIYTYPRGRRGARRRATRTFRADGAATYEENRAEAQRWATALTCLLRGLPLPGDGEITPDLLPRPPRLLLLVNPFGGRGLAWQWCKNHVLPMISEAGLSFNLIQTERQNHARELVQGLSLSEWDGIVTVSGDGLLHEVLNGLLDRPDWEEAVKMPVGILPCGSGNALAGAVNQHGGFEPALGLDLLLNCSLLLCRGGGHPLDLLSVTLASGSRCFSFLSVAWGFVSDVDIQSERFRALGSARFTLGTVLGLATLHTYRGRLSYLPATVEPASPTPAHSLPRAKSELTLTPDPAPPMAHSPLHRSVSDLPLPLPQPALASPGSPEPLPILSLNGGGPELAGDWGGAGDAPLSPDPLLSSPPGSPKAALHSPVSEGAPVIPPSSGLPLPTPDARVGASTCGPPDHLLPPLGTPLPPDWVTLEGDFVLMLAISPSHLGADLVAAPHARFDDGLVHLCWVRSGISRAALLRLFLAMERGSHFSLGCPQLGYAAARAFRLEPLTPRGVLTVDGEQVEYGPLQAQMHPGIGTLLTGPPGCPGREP
Description: Inhibition of SphK2 (unknown origin) assessed as inhibition constant.

For assay [2], the target named is T2, Sphingosine kinase 1 (Homo sapiens, UniProt Q9NYA1). Put plainly: Inhibition of SphK1 (unknown origin) assessed as inhibition constant.
Assay [3] deals with T1, Sphingosine kinase 2. Put plainly: Inhibition of recombinant GST-tagged SphK2 (unknown origin) (1 to 618 residues) expressed in baculovirus using sphingosine as substrate incubated for 1 hr in presence of ATP by electrophoretic mobility shift assay. For orientation: A gel shift assay detects complexes by their altered migration in electrophoresis.
Assay [4] concerns the target T2, Sphingosine kinase 1. Put plainly: Inhibition of recombinant GST-tagged SphK1 (unknown origin) (1 to 384 residues) expressed in baculovirus using sphingosine as substrate incubated for 1 hr in presence of ATP by electrophoretic mobility shift assay.
Assay [5] deals with T2, Sphingosine kinase 1. Put plainly: Inhibition of SphK1 (unknown origin).
Assay [6] concerns the target T1, Sphingosine kinase 2. Description: Inhibition of SphK2 (unknown origin).
The target of assay [7] is T2, Sphingosine kinase 1. Put plainly: Inhibition of SphK1 (unknown origin) using ATP as substrate preincubated for 40 mins followed by substrate addition and measured after 5 mins by spectrophotometric analysis.
For assay [8], the target named is T2, Sphingosine kinase 1. Description: Inhibition of recombinant SphK1 (unknown origin) using NBD-sphingosine as substrate in presence of ATP by fluorescence plate reader analysis.
Assay [9] addresses T1, Sphingosine kinase 2. Put plainly: Inhibition of recombinant SphK2 (unknown origin) using NBD-sphingosine as substrate in presence of ATP by fluorescence plate reader analysis.
The target of assay [10] is T1, Sphingosine kinase 2. Put plainly: Inhibition of SphK2 (unknown origin) using ATP as substrate preincubated for 40 mins followed by substrate addition and measured after 5 mins by spectrophotometric analysis.
For assay [11], the target named is T3, Sphingosine kinase 2 (Mus musculus, UniProt Q9JIA7).
T3 sequence (Q9JIA7 whole entry): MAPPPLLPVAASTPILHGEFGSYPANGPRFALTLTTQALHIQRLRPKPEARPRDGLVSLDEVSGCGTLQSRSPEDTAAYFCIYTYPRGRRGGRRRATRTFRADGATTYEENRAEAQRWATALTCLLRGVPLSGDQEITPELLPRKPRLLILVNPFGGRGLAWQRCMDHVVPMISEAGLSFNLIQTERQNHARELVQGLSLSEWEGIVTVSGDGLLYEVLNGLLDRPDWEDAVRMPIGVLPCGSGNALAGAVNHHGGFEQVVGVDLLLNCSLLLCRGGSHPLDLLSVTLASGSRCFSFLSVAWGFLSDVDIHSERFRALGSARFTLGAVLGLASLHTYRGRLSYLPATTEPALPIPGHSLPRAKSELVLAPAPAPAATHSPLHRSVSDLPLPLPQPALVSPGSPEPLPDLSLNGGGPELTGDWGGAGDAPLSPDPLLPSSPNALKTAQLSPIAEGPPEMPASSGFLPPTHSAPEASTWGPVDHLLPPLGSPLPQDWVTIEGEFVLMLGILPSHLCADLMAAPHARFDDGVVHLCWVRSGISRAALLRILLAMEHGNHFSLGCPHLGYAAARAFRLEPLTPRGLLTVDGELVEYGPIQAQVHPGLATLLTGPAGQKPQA
Description: Inhibition of recombinant mouse SphK2 expressed in baculovirus infected Sf9 cells using D-erythro-sphingosine and [gamma-32P]ATP as substrate incubated for 30 mins by liquid scintillation counting analysis.

In assay [12] the target is Sphingosine kinase 1 (Mus musculus, UniProt Q8CI15). Description: Inhibition of recombinant mouse SphK1 expressed in baculovirus infected Sf9 cells using D-erythro-sphingosine and [gamma-32P]ATP as substrate incubated for 30 mins by liquid scintillation counting analysis.
Chain of Sphingosine kinase 1 (Mus musculus, UniProt Q8CI15) (Q8CI15 whole entry): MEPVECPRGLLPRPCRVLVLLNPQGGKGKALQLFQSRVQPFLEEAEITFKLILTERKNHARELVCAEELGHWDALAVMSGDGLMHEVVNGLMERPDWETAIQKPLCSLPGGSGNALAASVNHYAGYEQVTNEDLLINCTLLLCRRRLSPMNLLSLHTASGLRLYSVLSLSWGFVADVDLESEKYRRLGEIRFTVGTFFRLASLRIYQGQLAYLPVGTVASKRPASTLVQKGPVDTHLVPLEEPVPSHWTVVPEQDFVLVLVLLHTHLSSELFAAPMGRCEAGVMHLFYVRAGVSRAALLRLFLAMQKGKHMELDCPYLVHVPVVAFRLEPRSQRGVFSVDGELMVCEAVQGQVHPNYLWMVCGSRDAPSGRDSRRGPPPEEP

T2 sequence (Q9NYA1 whole entry, the tested form may be a part): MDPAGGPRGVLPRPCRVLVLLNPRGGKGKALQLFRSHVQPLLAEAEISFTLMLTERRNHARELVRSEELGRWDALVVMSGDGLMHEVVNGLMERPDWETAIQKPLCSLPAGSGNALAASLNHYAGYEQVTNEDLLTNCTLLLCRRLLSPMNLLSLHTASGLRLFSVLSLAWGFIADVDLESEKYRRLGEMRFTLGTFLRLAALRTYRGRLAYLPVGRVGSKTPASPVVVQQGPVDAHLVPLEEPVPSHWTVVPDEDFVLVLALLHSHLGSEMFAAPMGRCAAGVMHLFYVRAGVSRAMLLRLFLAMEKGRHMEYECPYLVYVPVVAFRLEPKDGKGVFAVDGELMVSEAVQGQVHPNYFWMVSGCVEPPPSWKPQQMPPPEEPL

For the molecule `Oc1ccc(Nc2nc(-c3ccc(Cl)cc3)cs2)cc1`, the Ki (commonly a dissociation constant, usually derived from enzyme kinetics or from competition with a known ligand) on Sphingosine kinase 2 [1] was found to be 8 µM.

Consider `CC(=O)N(C1=C(Cl)C(=O)c2ccccc2C1=O)C1CCCCC1`, for which, on Sphingosine kinase 1 [2], the Ki came to 0.3 µM.

For the molecule `CCCCCCCCCCCCCC[C@@H]1OC[C@@H](N)[C@@H]1O`, the results for the IC50 at Sphingosine kinase 2 [3] and on Sphingosine kinase 1 [4] were 1.6 µM and 5.3 µM, respectively. Consider `CCCCCCCCCCCCCC[C@@H]1OC[C@H](N)[C@@H]1O`, for which the results for the IC50 on Sphingosine kinase 1 [5] and against Sphingosine kinase 2 [6] were 4.6 µM and 6.6 µM, respectively. As to `CCCCCCCCCCCCC/C=C/[C@H](O)[C@@H](CO)N(C)C`, the Ki on Sphingosine kinase 2 [1] stood at 12 µM.

On to `N[C@H]1CN[C@H](CCCCCCCCCCCOC2CCOCC2)[C@H]1O`, for which, on Sphingosine kinase 1 [7], the half-maximal inhibitory concentration (IC50) (commonly the point on the concentration scale where inhibition reaches its midpoint) was found to be 0.8 µM. `COc1ccc2[nH]c(=O)c(/C=C/C(=O)c3ccc(Nc4nccc(-c5ccc6ccccc6c5)n4)cc3)cc2c1`: the half-maximal inhibitory concentration (IC50) at Sphingosine kinase 1 [8] amounted to 3.1 µM.

Turning to `CCCCCCCCCCCCC/C=C/C(O)C(CO)NC(=N)N` (centres undefined), the results for the Ki on Sphingosine kinase 2 [1] and on Sphingosine kinase 1 [2] were 0.3 µM and 0.04 µM, respectively. As for `Brc1cc2c(c3ccccc13)N1OC(C2)CC1CCc1ccccc1` (centres undefined), the IC50 at Sphingosine kinase 2 [9] is 71 µM; on Sphingosine kinase 1 [8], over 650 µM.

For `CCCOCCCCCCCCCC[C@@H]1OC[C@@H](N)[C@@H]1O`, the IC50 is 3.2 µM on Sphingosine kinase 2 [10] and over 30 µM at Sphingosine kinase 1 [7]. Consider `CCCCCCCCOc1ccc2cc(-c3noc(C4[C@@H](O)CCN4C(=N)N)n3)ccc2c1` (single isomer, unassigned), for which the Ki at Sphingosine kinase 2 [11] is 1 µM; at Sphingosine kinase 1 [12] it was 20 µM. In the case of `CCCCCCCCCCCCCC[C@H]1OC[C@H](N)[C@@H]1O` [2-EPI JASPINE B], the IC50 at Sphingosine kinase 2 [10] is 24.8 µM; on Sphingosine kinase 1 [7] it was 4.3 µM.

Source of the values: ChEMBL document CHEMBL5226290, “Rational design of SphK inhibitors using crystal structures aided by computer” (Eur J Med Chem, 2021).
